Values joined by “and” are separate entries in the source; they are usually repeats but may differ in a detail not shown here. Equal values may be shown once.
Test: Visual assessment of sweetener solubilization (solution aspect) at room temperature
Type: physicochemical
Protocol: Unless otherwise stated, the inventive compositions of the examples were prepared according to the following general procedure. Solvent A, Solvent B (or mix of solvents B) and solvent C (or mix of solvents C) were mixed using a mechanical stirrer at room temperature (22° C.) to obtain a clear one-phase liquid. A solid natural sweetener in pure form or a blend of solid natural sweeteners was then added to the transparent solvent mixture and mechanically stirred. Mechanical stirring was maintained until the complete solubilization of the sweetener(s) at room temperature was observed. Comparative compositions were prepared analogously. The tables in the following examples summarize the components used in the inventive and comparative compositions.
Comparative and inventive compositions were prepared according to Table 1 below. The solubilization of the sweetener was assessed visually as a function of time. The stability of the concentrated solution (transparency of the solution) was also assessed visually at room temperature (22° C.) as a function of time.

## C=C1C[C@@]23CC[C@H]4[C@@](C)(CCC[C@@]4(C)C(=O)O[C@@H]4O[C@H](CO)[C@@H](O)[C@H](O)[C@H]4O)[C@@H]2CC[C@]1(O[C@@H]1O[C@H](CO)[C@@H](O)[C@H](O[C@@H]2O[C@H](CO)[C@@H](O)[C@H](O)[C@H]2O)[C@H]1O[C@@H]1O[C@H](CO)[C@@H](O)[C@H](O)[C@H]1O)C3 [Reb A (99.5%), Rebaudioside A]
Binary mix ethanol/water 80/20, after 1 day at room temperature (22° C.)
  Amount dispersed giving non-complete solubilization and a cloudy solution: 3 % wt
Binary mix glycerol/water 80/20, after 1 day at room temperature (22° C.)
  Amount dispersed giving non-complete solubilization and a cloudy solution: 2 % wt and 1 % wt
Binary mix propylene glycol/glycerol 33/66, after 2 days at room temperature (22° C.)
  Amount dispersed giving non-complete solubilization and a cloudy solution: 4.6 % wt
Binary mix propylene glycol/glycerol 33/66, room temperature (22° C.)
  Amount of sweetener that was soluble: 2.6 % wt
Binary mix propylene glycol/glycerol 50/50, after 2 days at room temperature (22° C.)
  Amount dispersed giving non-complete solubilization and a cloudy solution: 4.6 % wt
Binary mix propylene glycol/glycerol 50/50, room temperature (22° C.)
  Amount of sweetener that was soluble: 3.8 % wt
Binary mix propylene glycol/water 80/20, after 2 days at room temperature (22° C.)
  Amount dispersed giving non-complete solubilization and a cloudy solution: 11 % wt
Binary mix propylene glycol/water 80/20, room temperature (22° C.)
  Amount of sweetener that was soluble: 10 % wt
glycerol/water 80/20 with 48% wt of glycerol replaced by ethanol
  Amount of sweetener solubilized: 12%

— patent US20260206810A1, “NATURAL SWEETENER COMPOSITIONS AND USES THEREOF” (Firmenich SA, priority 2022, published 2026)
